Data: patent US5258371A, “Method to reduce connective tissue destruction” (Kuraray Co., Ltd., priority 1992, dated 1993)
pIC50: −log10 of the molar value.

Experiments:
[1] = tested on: rheumatoid arthritis; conditions: rheumatoid arthritis patients; J. Rheumatol., 17, 43 (1990); cited from earlier work
[2] = tested on: collagenase; conditions: periodontal diseases; J. Periodontal Res., 18, 516 (1983); cited from earlier work
[3] = compared to tetracyclines; cited from earlier work
[4] = target: T1, collagenase (Oryctolagus cuniculus, UniProt P13943); experiment: Collagenase inhibition test (in vitro), decomposition of FITC-labelled collagen; type: biochemical, Japanese white rabbit; conditions: for pIC50: collagenase from IL-1-stimulated rabbit chondrocyte culture supernatant, trypsin-activated, 35° C., 5% DMSO, read-out: Concentration of Drug Showing 50% Inhibition, IC50; for anti-collagenase activity (in words): refers to Test Example; for collagenase inhibition activity as a multiple of that of DMAT: relative to DMAT (control), from Table 1
T1 construct: endogenous in cells; host or cells: primary knee articular chondrocytes of Japanese white rabbit, stimulated with human recombinant interleukin-1 ('Interleukin-1a' in the source); culture supernatant
T1 sequence (P13943 99-468): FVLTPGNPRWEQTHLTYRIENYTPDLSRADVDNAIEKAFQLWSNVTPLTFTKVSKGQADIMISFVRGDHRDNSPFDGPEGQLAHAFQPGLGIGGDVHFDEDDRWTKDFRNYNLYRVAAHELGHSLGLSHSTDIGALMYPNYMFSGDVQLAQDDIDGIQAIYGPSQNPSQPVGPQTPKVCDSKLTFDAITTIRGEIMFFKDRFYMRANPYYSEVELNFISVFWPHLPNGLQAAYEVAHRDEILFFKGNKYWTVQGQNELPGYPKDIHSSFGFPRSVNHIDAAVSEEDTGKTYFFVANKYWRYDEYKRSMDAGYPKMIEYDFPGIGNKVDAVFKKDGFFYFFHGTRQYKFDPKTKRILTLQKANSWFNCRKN
Experimental: The tetracycline derivatives used in the present invention were tested for collagenase inhibition (in vitro), and for suppression of destruction of articular cartilage using rabbit osteoarthritis models (in vivo).
The knee articular cartilage of a Japanese white rabbit (4 weeks old) was aseptically taken out. The cartilage cells (chondrocytes) were separated according to the method of S. Collier et al [Ann. Rheum. […] In 30 ml of Ham's F12 culture medium (containing 10% fetal bovine serum) 4×10^6 cartilage cells were suspended and the medium was incubated at 37° C. in a 150 cm^2 incubation flask (made by Iwaki Glass Co., Japan) and under an air atmosphere containing 5% carbon dioxide. The medium was replaced every 3 to 4 days. When the cells propagated to the state of confluence (7 to 9 days after the start of incubation), the medium was replaced by Ham's F12 serum-free culture medium (30 units/ml of human recombinant Interleukin-1a made by Genzyme Co., USA) and 0.4% lactalbumin hydrolysate (made by Sigma Co., USA) and incubation was conducted for 4 days. The culture supernatant was taken and used as the collagenase solution to be tested.
The collagenase activity was expressed based on the decomposition of 1 μg of collagen at 35° C. in 1 minute being equal to 1 unit.
A solution of a drug to be tested was dissolved in dimethyl sulfoxide (DMSO), then was added to the collagenase assay solution. The final concentration of DMSO is 5%. The inhibition ratio of the drug was calculated based on the collagen decomposition activity without its addition being 100%.

[5] = tested on: collagenase; conditions: J. Dent. Res., 66, 1310 (1987) and others; cited from earlier work
[6] = tested on: bone resorption; conditions: J. Dent. Res., 66, 1310 (1987) and others; cited from earlier work
[7] = tested on: articular cartilage in rabbit osteoarthritis models; experiment: Test for suppression of destruction of articular cartilage using rabbit osteoarthritis models (partial lateral meniscectomy); type: in vivo, New Zealand white rabbit
Experimental: The tetracycline derivatives used in the present invention were tested for collagenase inhibition (in vitro), and for suppression of destruction of articular cartilage using rabbit osteoarthritis models (in vivo). The tetracycline derivatives tested were the mixture of DODMAT-2 and DODMAT-3 obtained in Synthesis Example 1 (hereinafter this mixture is referred to as "DODMAT mixture" and DOTC (mixture of isomers) obtained in Synthesis Example 2. DMAT was used as control.
The rabbit osteoarthritis models were made by the partial lateral meniscectomy procedure according to the method of C. Colombo et al [Arthritis Rheum., 26, 875 (1983)]. Adult male New Zealand white rabbits weighing approximately 3 kg each were used. The animals were anesthetized by intramuscular injection of 40 mg/kg Ketamine and 1.6 mg/kg Xylazine before surgery. The surgery was conducted as follows; the right knee was opened laterally, the fibular collateral ligament was exposed and 3-4 mm were removed. Subsequently, 3-4 mm of the sesamoid ligament were removed, followed by removal of 4-5 mm of the anterior lateral area of the exposed meniscus. The capsule and skin were then sutured. Following surgery, each animal daily received intramuscular injection of 2 mg/kg/day Dibekacin sulfate for a week to be protected from infection. The animals were sustained on standard rabbit pellets and tap water ad libitum during experiment.
The test drug (DODMAT mixture) or vehicle began 1 week post-surgery and continued every 7 days per week for 5 weeks. DODMAT, suspended in a vehicle aqueous solution containing 1% methyl cellulose, 0.8% sodium chloride, and 0.1% polysorbate 80, was administered orally by gavage. […] The histologic slides were coded and evaluated blind for 11 parameters, which are set forth in Table 2, using a scoring system of +1 to +4 for each type of abnormality as described by C. […] The data were analyzed by the one-sided Wilcoxon rank sum method.

CN(C)c1ccc(O)c2c1C[C@H]1C[C@H]3[C@H](N(C)C)C(O)=C(C(N)=O)C(=O)[C@@]3(O)C(O)=C1C2=O [minocycline]
time after start of administration at which appreciable effects were observed [1]: 4 months
anti-collagenolytic activity (in words) [2]: anti-collagenolytic activity

C[C@@]1(O)c2cccc(O)c2C(=O)C2=C(O)[C@]3(O)C(=O)C(C(N)=O)=C(O)CC3CC21 (stereo partly drawn) [DMAT, 4-dedimethylaminotetracycline]
antibacterial activity (in words) [3]: without the same antibacterial activity
pIC50 [4]: 3.52
collagenase inhibition compared to tetracyclines (in words) [5]: compares favorably to tetracyclines with respect to collagenase inhibition
suppression of bone resorption compared to tetracyclines (in words) [6]: compares favorably to tetracyclines with respect to collagenase inhibition, suppression of bone resorption

4-dedimethylamino-12a-deoxytetracycline [DODMAT mixture]
pIC50 [4]: 5.60
anti-collagenase activity (in words) [4]: excellent anti-collagenase activity
collagenase inhibition activity as a multiple of that of DMAT [4]: at least 10 times
Mean score of cartilage lesions ± S.E. ([7]; 15 mg/kg/day orally by gavage, 5 weeks from 1 week post-surgery, 9 animals, p < 0.05 (one-sided Wilcoxon rank sum), vehicle 46.6 ± 7.3 (7 animals)): 24.7 ± 3.3
improvement resulting from treatment ([7]; cartilage lesion score versus vehicle, 15 mg/kg/day oral): at least 47%
suppression of destruction of articular cartilages (in words) ([7]; rabbit osteoarthritis models): significant suppression of destruction of articular cartilages

12a-deoxytetracycline [DOTC]
pIC50 [4]: 4.66
anti-collagenase activity (in words) [4]: excellent anti-collagenase activity
collagenase inhibition activity as a multiple of that of DMAT [4]: at least 10 times
